Test results published in patent US9017938B2, “Use of microrna-199b-5p in medical and diagnostic field” (Advanced Accelerator Applications, priority 2009, dated 2015).

Columns and labels:
[1] = tested on: Daoy cells; experiment: Orthotopic cerebellar xenograft (BLI, PET-CT, immunohistochemistry); type: in vivo, nude mice; conditions: 199bSC1 clone injected into fourth ventricle, four weeks, vs control cells
Description: The mice were kept in a ventilated cage (26° C.) for 1 h prior to imaging studies. Anesthesia was performed with intraperitoneal administration of a mixture of ketamine (100 mg/kg) and xylazine (10 mg/kg) (injection volume, 100 μl/10 g). PET was performed 1 h after administration of 3′-deoxy-3′-[18F]fluorothymidine ([18F]FLT), a marker of tumor proliferation (50 μL; 7.4 MBq; scan time, 18 min), in a lateral caudal vein, using an animal PET scanner (GE Healthcare eXplore Vista, FWHM 1.6 mm). High resolution CT studies (GE Healtcare eXplore Locus; spatial resolution, 45 μm) were performed within 24 h from the PET.
Lesion volumes were calculated from PET data using in-house-developed software (based on IDL, ITT Vis Inc), by summarizing all spatially connected voxels with SUV>50% SUVmax. Lesion profiles defined with these procedures were used for ROI-based comparison between AdV5-Mock and AdV5-199b.
Unmasking was performed in 10 mM citrate buffer, pH 6, at 97° C. for 45 min. […]
To establish intracerebellar xenograft models, 6-to-8-week-old SCID mice were anesthetized with Tribromoethanol (Avertin®) (50 mg/kg); after this, a small skin incision (1 mm) was made and a burr hole (0.7 mm in diameter) created with a microsurgical drill (Fine Science Tools, Foster City, Calif.). […] The animals were monitored weekly by bioluminescence to evaluate tumor growth for 8 weeks.

[2] = tested on: Daoy cell side population; experiment: Side population FACS (Hoechst 33342 exclusion); type: cell-based, human
Description: The flow cytometry analysis of S-phase fractions and cell-cycle kinetics were carried out using a FACSCalibur (Becton Dickinson, San Jose, Calif.) using CELL Quest version 3.3 software. The CD133 studies were carried out using the same instrument, with antibodies from Miltenyi Biotec (Auburn, Calif.), according to the manufacturer instructions. In brief, the cells were blocked in Fc receptor blocking reagent and incubated with an anti-CD133/1 (AC133)-phycoerythrin antibody (Miltenyi Biotec), for 10 min in the dark at 4° C. The cells were then washed and resuspended in PBS. Cells expressing higher levels of CD133 than the immunoglobulin G (IgG) controls were considered positive. For analyses of the side populations, cells […] were incubated with Hoechst 33342 (5 μmol/L; Sigma) for 90 min at 37° C. in EMEM containing 2% FBS. To ensure the correct identification of the side population cells, the cells were incubated as above with the addition of 50 μM verapamil (Sigma).

[3] = tested on: Daoy cells; experiment: s.c. flank xenograft with bioluminescence imaging; type: in vivo, athymic nude/nude mice
Description: Stable Daoy cell clones were generated by transfecting a luciferase-expressing vector (the firefly luciferase gene cloned in the plentiV5 vector; Invitrogen) into the stable 199bSC1 clone or into the control empty-vector clone. Then 100,000 viable 199b-Luc1 and Ctl-Luc-4 cells were mixed with a 1:1 PBS:matrigel solution (BD Biosciences, San Jose, Calif.). Six-week-old female athymic mice were anesthetised using avertin (Sigma) as a 3% solution in tert-amyl alcohol (Fisher), at a dose of 3 mg per 10 g body weight. The mice were injected s.c. with a total volume of 0.1 mL of matrigel PBS cell suspension, into each flank. The mice were imaged after the implantation of the cells, with tumor growth monitored by weekly bioluminescence acquisitions (BLI) using an MS 3D Illumina Imaging System (Xenogen Corp. Alameda, Calif.). For the acquisitions, the mice were […] with 100 μL D-luciferin (15 mg/mL stock) per 10 g body weight, and imaged for 30 s, 10 min after luciferin injection; four acquisitions per mouse were made (ventral, dorsal and each flank). To quantify the bioluminescence, the integrated fluxes of photons (photons per s) within each area of interest were determined using the Living Images Software Package 3.0 (Xenogen-Caliper). The emission data from the start of tumor growth were collected for at least 6 weeks, and then were normalized to the bioluminescence on the injection day. Calliper measurements of tumor sizes were made weekly, along the long and short axes, and estimations of their volumes were made using the formula: width2×length×0.52.

[4] = tested on: GSK3-β; experiment: Western blotting of GSK3-β; type: cell-based, human; conditions: stable 199bSC1 clone
Description: Thirty μg cytosolic or nuclear lysates were loaded onto 12% polyacrilamide gels, and blotted onto polyvinylidene difluoride membranes (PVDF; BioRad, Milan, Italy). The membranes were then incubated with anti-HES1 (kind gift of Dr. Tetsuo Sudo TORAY Industries, Tebiro Kamakura, Japan), a polyclonal rabbit antibody (1:500), an anti-GSK3-β (B&D Bioscience) monoclonal antibody (1:2500), an anti-c-Myc polyclonal rabbit antibody (1:200) (Santa Cruz Biotechnology, Santa Cruz, Calif., USA), an anti-GABRA6 antibody (Santa Cruz Biotechnology, Santa Cruz, USA) (1:200), an anti-MATH3 antibody (Santa Cruz Biotechnology, Santa Cruz, USA) (1:200) and an anti-cyclin D1 (1:200) polyclonal rabbit antibody (Cell Signaling). An anti-β-actin antibody (1:1.000) (Sigma) was used as the control for equal loading of cytosolic lysates and a polyclonal anti-β-laminin antibody (1:50) (Santa Cruz Biotechnology, Santa Cruz, Calif., USA) for equal loading of nuclear lysates.

[5] = tested on: Nanog 3′UTR; experiment: Luciferase reporter assay, full-length 3′UTR; type: cell-based; conditions: miR-199b-5p over-expression in Daoy cells
Description: (§1) To determine the activity of miR-199b-5p on repression of the luciferase-3′UTR fused constructs, the pREYZO-miR-199b-5p construct and the pRL-CMV-3′UTR target construct were co-transfected into HEK293 cells at a ratio of 10:1, using the Polyfect reagent (Qiagen) together with the pGL3 basic vector, in the absence and presence of 2-OM (400 nM). Luciferase activities were analysed using a Dual Luciferase Reporter Assay system (Promega, Madison, Wis.).

[6] = tested on: NHLH2 3′UTR; experiment: Luciferase reporter assay, full-length 3′UTR; type: cell-based; conditions: miR-199b-5p over-expression in Daoy cells
Description: as §1

Substance: miR-199b-5p: mature microRNA CCCAGUGUUUAGACUAUCUGUUC (SEQ ID NO:11); over-expressed from pre-miR-199b construct, e.g. stable Daoy clones 199bSC1, 199bMC1 (listed as RNA, chemistry not fully specified)
- tumor growth by BLI [1]: considerably lower
- fraction of SP cells ([2]; stable 199bMC1 clone (Daoy cells 5.2%)): 0.4%
- fraction of SP cells ([2]; stable 199bSC1 clone (Daoy cells 5.2%)): 0.2%
- tumor volumes, control flanks vs miR-199b-5p flanks ([3]; 199b-Luc1 vs Ctl-Luc-4 Daoy clones): significant difference in tumor volumes
- mice with statistically significant difference in bioluminescence signal between control and miR-199b-5p sides ([3]; after nine weeks): four out of the five
- tumors detectable macroscopically ([3]; s.c. injection of Daoy cells over-expressing miR-199b-5p, nine weeks (control cells 5/5)): 3/5
- GSK3-β protein levels [4]: did not show any significant reductions
- down-regulation of reporter carrying Nanog 3′UTR [5]: did not detect any down-regulatory effects
- down-regulation of reporter carrying NHLH2 3′UTR [6]: did not detect any down-regulatory effects
